According to patent publication US11518764B2, “Substituted heteroaryls as inhibitors of the BCL6 BTB domain protein-protein interaction” (Ontario Institute for Cancer Research (OICR), priority 2018, dated 2022):
Read-outs that look alike come from different tables or passages of the source.

Tests used:
Karpas422 cells = test: Tumor cell growth inhibition assay; format: cell-based; conditions: Homo sapiens, KARPAS-422, 144 h
Method in brief: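 Karpas422 cells (2,000/well) in Alpha-MEM with 10% FBS dosed across 10 concentrations (top 5 uM) and grown six days at 37° C., 5% CO2. Viability read as ATPlite luminescence.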

[1] = test system: BCL6 reporter construct (3xBCL6-TK-Luc) in SuDHL4 cells; test: Cell-based luciferase assay
Method in brief: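 SuDHL4 cells stably carrying a 3×BCL6-site TK-promoter firefly luciferase reporter, seeded at 15,000 cells/well, were dosed over a 10-point range (top 10 uM) and grown two days at 37 °C, 5% CO2. Luminescence then read after adding neolite reagent at room temperature.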

BCL6 BTB domain = BCL6 BTB domain (Homo sapiens (Human), UniProt P41182); test: Surface plasmon resonance (SPR) assay; format: binding; conditions: BCL6 BTB domain captured on SA chip, single cycle kinetics
[2] = read-out: Tumor Growth Inhibition in Karpas-422 (IC50, uM), Karpas422 cells, six days, ATPlite
[3] = Homo sapiens, SU-DHL-4, 48 h, read-out: Luciferase-Assay EC50, uM), SuDHL4-3xBCL6-TK-Luc cells, two days, high dose 10 uM

| SMILES | IC50 (Karpas422 cells; Karpas422 cells, six days, ATPlite, read-out: Tumor Growth Inhibition in Karpas-422 (IC50)) [µM] | EC50 ([1]; Homo sapiens, SU-DHL-4, 48 h, SuDHL4-3xBCL6-TK-Luc cells, two days, high dose 10 uM, read-out: Luciferase-Assay EC50) [µM] | Kd (BCL6 BTB domain) [nM] | IC50 (Karpas422 cells; [2]) [µM] | EC50 [1, 3] [µM] |
| --- | --- | --- | --- | --- | --- |
| Cn1cnc2c(c(-c3cc(Cl)c(O)c(C(N)=O)c3)cn2CC(=O)Nc2cc(N3C4COCC5CC543)ncc2Cl)c1=O (stereo not drawn) [Compound I-281] | 2.18 | 2.88 | 60.8 | – | – |
| Cn1cnc2c(c(-c3cc(Cl)c(O)c(C(N)=O)c3)cn2CC(=O)Nc2cc(N3CC4CC(C3)O4)ncc2Cl)c1=O [Compound I-282] | – | – | 21.3 | 0.489 | 0.669 |
| CN1C2CCC1CN(c1cc(NC(=O)Cn3cc(-c4cc(F)c(O)c(C(N)=O)c4)c4c(=O)n(C)cnc43)c(Cl)cn1)C2 [Compound I-283] | – | – | 16.7 | 0.282 | 0.222 |
| Cn1cnc2c(c(-c3cc(F)c(O)c(C(N)=O)c3)cn2CC(=O)Nc2cc(N3CC4CC3CO4)ncc2Cl)c1=O (stereo not drawn) [Compound I-284] | – | – | 23.4 | 0.75 | 0.628 |
| CN1C2CCC1CN(c1cc(NC(=O)Cn3cc(-c4cc(C(N)=O)c(O)c(F)c4F)c4c(=O)n(C)cnc43)c(Cl)cn1)C2 [Compound I-285] | – | – | 102 | 1.6 | 1.6 |
| Cn1cnc2c(c(-c3cc(C(N)=O)c(O)c(F)c3F)cn2CC(=O)Nc2cc(N3CC4CC3CO4)ncc2Cl)c1=O (stereo not drawn) [Compound I-286] | – | – | 83.7 | 1.54 | 1.96 |
| CN1CC2CN(c3cc(NC(=O)Cn4cc(-c5cc(F)c(O)c(C(N)=O)c5)c5c(=O)n(C)cnc54)c(Cl)cn3)CC2C1 (stereo not drawn) [Compound I-287] | – | – | 18.6 | 1.44 | 1.71 |
| CN(C)c1cc(NC(=O)Cn2cc(-c3cc(F)c(O)c(C(N)=O)c3)c3c(=O)n(C)cnc32)c(Cl)cn1 [Compound I-288] | – | – | 9.47 | 0.128 | 0.181 |
| CN1CCCN(c2cc(NC(=O)Cn3cc(-c4cc(F)c(O)c(C(N)=O)c4)c4c(=O)n(C)cnc43)c(Cl)cn2)CC1 [Compound I-289] | – | – | 16 | 0.652 | 1.18 |
| COc1cc(NC(=O)Cn2cc(-c3cc(Cl)c(O)c(C(N)=O)c3)c3c(=O)n(C)c(O)nc32)c(Cl)cn1 [Compound I-290] | – | – | 18400 | 10 | 10 |
| CN(C)c1cc(NC(=O)Cn2cc(-c3cc(Cl)c(O)c(C(N)=O)c3)c3c(=O)n(C)c(Cl)nc32)c(Cl)cn1 [Compound I-292] | – | – | 81.2 | 0.575 | 1.66 |
| CN(C)c1cc(NC(=O)Cn2cc(-c3cc(Cl)c(O)c(C(N)=O)c3)c3c(=O)[nH]c(Cl)nc32)c(Cl)cn1 [Compound I-293] | – | – | 18.3 | 2.44 | 10 |
| C[C@H]1COCCN1c1cc(NC(=O)Cn2cc(-c3cc(Cl)c(O)c(C(N)=O)c3)c3c(=O)[nH]c(Cl)nc32)c(Cl)cn1 [Compound I-294] | – | – | 9.95 | 1.88 | 1.43 |
| CC(C)N1CCN(c2cc(NC(=O)Cn3cc(-c4cc(F)c(O)c(C(N)=O)c4)c4c(=O)n(C)cnc43)c(Cl)cn2)[C@@H](C)C1 [Compound I-295] | – | – | 7.84 | 0.106 | 0.14 |
| C[C@H]1CN(C2CC2)CCN1c1cc(NC(=O)Cn2cc(-c3cc(Cl)c(O)c(C(N)=O)c3)c3c(=O)n(C)cnc32)c(Cl)cn1 [Compound I-296] | – | – | 33.4 | 0.209 | 0.271 |
| CN(C)c1cc(NC(=O)Cn2cc(-c3cc(C(N)=O)c(O)c(F)c3F)c3c(=O)n(C)cnc32)c(Cl)cn1 [Compound I-297] | – | – | 57.9 | 0.846 | 0.395 |
| Cn1cnc2c(c(-c3cc(C(N)=O)c(O)c(F)c3F)cn2CC(=O)Nc2cc(N3CCCC3)ncc2Cl)c1=O [Compound I-298] | – | – | 32.4 | 0.883 | 0.399 |

| SMILES | IC50 (Karpas422 cells; Karpas422 cells, six days, ATPlite, read-out: Tumor Growth Inhibition in Karpas-422 (IC50)) [µM] | EC50 ([1]; Homo sapiens, SU-DHL-4, 48 h, SuDHL4-3xBCL6-TK-Luc cells, two days, high dose 10 uM, read-out: Luciferase-Assay EC50) [µM] | Kd (BCL6 BTB domain) [nM] | IC50 (Karpas422 cells; [2]) [µM] | EC50 [1, 3] [µM] |
| --- | --- | --- | --- | --- | --- |
| Cn1cnc2c(c(-c3cc(C(N)=O)c(O)c(F)c3F)cn2CC(=O)Nc2cc(N3CC4COCC4C3)ncc2Cl)c1=O (stereo not drawn) [Compound I-299] | – | – | 31.4 | 0.685 | 0.521 |
| C[C@H]1CN(CC2CC2)CCN1c1cc(NC(=O)Cn2cc(-c3cc(Cl)c(O)c(C(N)=O)c3)c3c(=O)n(C)cnc32)c(Cl)cn1 [Compound I-301] | – | – | 19.6 | 0.252 | 0.21 |
| C[C@H]1COCCN1c1cc(NC(=O)Cn2cc(-c3cc(C(N)=O)c(O)c4c3OCO4)c3c(=O)n(C)cnc32)c(Cl)cn1 [Compound I-302] | – | – | 5.05 | 0.0528 | 0.0865 |
| C[C@H]1CN(CC2CC2)CCN1c1cc(NC(=O)Cn2cc(-c3cc(F)c(O)c(C(N)=O)c3)c3c(=O)n(C)cnc32)c(Cl)cn1 [Compound I-303] | – | – | 6.36 | 0.0323 | 0.0493 |
| C[C@H]1CN(C)CCN1c1cc(NC(=O)Cn2cc(-c3cc(C(N)=O)c(O)c(F)c3F)c3c(=O)n(CC#Cc4cnn(C)c4)cnc32)c(Cl)cn1 [Compound I-304] | – | – | 6.56 | 0.314 | 0.228 |
| Cc1nc2c(c(-c3cc(C(N)=O)c(O)c(F)c3F)cn2CC(=O)Nc2cc(N3CCN(C)CC3)ncc2Cl)c(=O)n1C [Compound I-305] | – | – | 70.5 | 1.32 | 0.647 |
| Cc1nc2c(c(-c3cc(Cl)c(O)c(C(N)=O)c3)cn2CC(=O)Nc2cc(N3CCN(C)CC3)ncc2Cl)c(=O)n1C [Compound I-306] | – | – | 15.8 | 0.265 | 0.106 |
| Cc1nc2c(c(-c3cc(C(N)=O)c(O)c4c3OCO4)cn2CC(=O)Nc2cc(N3CCOC[C@@H]3C)ncc2Cl)c(=O)n1C [Compound I-308] | – | – | 2.05 | 0.0161 | 0.0368 |
| Cc1nc2c(c(-c3cc(C(N)=O)c(O)c4c3OCCO4)cn2CC(=O)Nc2cc(N3CCOC[C@@H]3C)ncc2Cl)c(=O)n1C [Compound I-309] | – | – | 146 | 2.55 | 1.02 |
| C[C@H]1CN(Cc2ccccc2)CCN1c1cc(NC(=O)Cn2cc(-c3cc(C(N)=O)c(O)c(F)c3F)c3c(=O)n(C)cnc32)c(Cl)cn1 [Compound I-314] | – | – | 117 | 6.7 | 0.901 |
| Cc1nc2c(c(-c3cc(Cl)c(O)c(C(N)=O)c3)cn2CC(=O)Nc2cc(N3CCOC[C@@H]3C)nc(F)c2Cl)c(=O)n1C [Compound I-315] | – | – | 14.2 | 0.147 | 0.114 |
| Cc1nc2c(c(-c3cc(C(N)=O)c(O)c(F)c3F)cn2CC(=O)Nc2cc(N3CCOC[C@@H]3C)nc(F)c2Cl)c(=O)n1C [Compound I-316] | – | – | 24.1 | 0.376 | 0.243 |
| C[C@H]1COCCN1c1cc(NC(=O)Cn2cc(-c3cc(C(N)=O)c(O)c(F)c3F)c3c(=O)n(C)cnc32)c(Cl)c(F)n1 [Compound I-317] | – | – | 54.9 | 0.467 | 0.633 |
| Cn1cnc2c(c(-c3cc(C(N)=O)c(O)c(F)c3F)cn2CC(=O)Nc2cc(N3CCOCC3)nc(F)c2Cl)c1=O [Compound I-318] | – | – | 51.8 | 0.319 | 0.228 |
| C[C@H]1COCCN1c1cc(NC(=O)Cn2cc(-c3cc(F)c(O)c(C(N)=O)c3)c3c(=O)n(C)cnc32)c(Cl)c(F)n1 [Compound I-319] | – | – | 3.96 | 0.0994 | 0.104 |
| CN1CC2CCC(C1)N2c1cc(NC(=O)Cn2cc(-c3cc(C(N)=O)c(O)c(F)c3F)c3c(=O)n(C)cnc32)c(Cl)cn1 [Compound I-320] | – | – | 48.4 | 0.979 | 1.15 |
